# Values of other authors as cited in patent US20050042268A1, “Pharmaceutical composition and method for transdermal drug delivery” (priority 2003, published 2005).
smiles,measurement,value
C[C@]12CC[C@H]3[C@@H](CCC4=CC(=O)CC[C@@]43C)[C@@H]1CC[C@@H]2O [testosterone],free testosterone as part of the total concentration in the blood,4 to 8%
same,testosterone in the blood bound to protein,Over 90%
